The record followed here is article PMC8619673 (Cells, 2021).

Each structure is given as a SMILES string.

The subject of one series is Aβ-GFP SH-SY5Y cells. Kind of series: Aβ-GFP fluorescence (Aβ-GFP folding reporter). The conditions noted are these: 1–5 μM, normalized with cell number, day 8. The format is cell-based, Human. As to the method:
To induce neuronal differentiation, 2 × 10^4 Aβ-GFP SH-SY5Y cells were seeded on a 96-well plate with retinoic acid (10 µM; Sigma-Aldrich). Cells were pretreated with tested compounds (0.2–5 µM) on day 2 for 8 h and then with doxycycline (5 μg/mL) to induce Aβ-GFP expression. Medium containing retinoic acid compound and doxycycline was refreshed every 2 days for 6 days. Then, cells were stained with Hoechst 33342 (0.1 µg/mL; Sigma-Aldrich) at 37 °C for 30 min. Cell images were recorded at 482/35 nm excitation and 536/40 nm emission wavelengths (ImageXpres Micro Confocal High-Content Imaging System; Molecular Devices, Sunnyvale, CA, USA), and analyzed by MetaXpress (Molecular Devices).

For a further series, the system named is Aβ-GFP RNA. Description: Real-time PCR of Aβ-GFP RNA. The format is cell-based, Human. The conditions noted are these: 5 μM; untreated 28.6; not significantly affected. An excerpt: RNA was extracted using TRIzol reagent (Invitrogen, Carlsbad, CA, USA), followed by treatment with DNase I (Stratagene, La Jolla, CA, USA). cDNA was synthesized by SuperScript™ III reverse transcriptase (Invitrogen) according to manufacturer’s instruction and used to determine Aβ-GFP mRNA expression by StepOnePlus™ Real-time PCR system (Applied Biosystems, Foster City, CA, USA) using customized GFP primers (forward primer: 5′-[…]-3′, reverse primer: 5′-[…]-3′), FAM/NFQ probe (5′-[…]-3′), and TaqMan hypoxanthine phosphoribosyltransferase 1 (HPRT1) endogenous control (VIC/MGB probe, 4326321E) (Applied Biosystems). Fold change was calculated using the formula 2^ΔCt, ΔCT = CT (HPRT1)—CT (GFP), in which CT indicates the number of threshold cycles.
In general terms: Quantitative PCR measures a nucleic acid by following its amplification.

A further series is described as follows: in vitro. To be noted: PAMPA. The procedure: PAMPA was used to predict the penetration of the tested compounds across the BBB. […] The filter PVDF membrane (pore size 0.45 μm; Millipore) was coated with 4 μL of porcine polar brain lipid (20 mg/mL; Avanti Polar Lipids, Alabaster, AL, USA) in dodecane and the acceptor well filled with 200 μL of 5% DMSO in PBS. The filter plate was carefully placed on the donor plate to form a sandwich plate at room temperature for 18 h. After the permeation time, the filter and donor plates were separated. The concentration of the tested compound in the donor and acceptor wells was measured by an AB Sciex QTrap 5500 mass spectrometer (Applied Biosystems) linked to a 1200 HPLC system (Agilent Technologies, Palo Alto, CA, USA). The concentrations of the QC compounds were determined by a Tecan Infinite M200 Pro microplate reader (Switzerland). The effective permeability coefficient (Pe) was calculated as described. Each compound was tested in triplicate.

Where [1] appears, read: BBB Permeability Classification.
Where [2] appears, read: Measured Pe (effective permeability).

For `CCOC(=O)c1cc2c(O)cccc2oc1=O` [ZN014, ethyl 5-hydroxy-2-oxo-2H-chromene-3-carboxylate], the “GFP fluorescence intensity relative to untreated cells (100%)” value in the series with Aβ-GFP SH-SY5Y cells is on record as 111–119%. Further, the “Relative Aβ-GFP/HPRT1 RNA level” value with Aβ-GFP RNA is listed as 29.2–30.0 folds of induction. The apparent permeability (Papp) (commonly a coefficient for how fast a substance crosses the barrier) at 18 h, 1 μM in “in vitro” (setting [1]) was below 2 ×10⁻⁶ cm/s; in the series “in vitro” (setting [2]) it was 0.56 ± 0.01 ×10⁻⁶ cm/s.

For the compound `O=C(/C=C/c1ccccc1O)c1c(O)c2ccccc2oc1=O` [ZN015, (E)-4-hydroxy-3-(3-(2-hydroxyphenyl)acryloyl)-2H-chromen-2-one], the “GFP fluorescence intensity relative to untreated cells (100%)” value in the series on Aβ-GFP SH-SY5Y cells was 113–125%. In addition, the “Relative Aβ-GFP/HPRT1 RNA level” value in the series with Aβ-GFP RNA is listed as 29.2–30.0 folds of induction. The Papp at 18 h, 1 μM in “in vitro” (setting [1]) is above 4 ×10⁻⁶ cm/s; in the series “in vitro” (setting [2]) it was 5.16 ± 0.11 ×10⁻⁶ cm/s.
